Earlier results as cited in PubChem BioAssay AID1259409 (Chemical Carcinogenesis Research Information System (CCRIS), 2018).

Tested on: rodent chemically induced tumor inhibition, incidence and multiplicity
Experiment: CCRIS tumor inhibitor studies
Details: Dose [Inhibitor]: 0, Route [Inhibitor]: ORAL, Species: RAT, Promoter: NONE USED

N#C[Se]Cc1ccc(C[Se]C#N)cc1
tumour outcome (control, treated, inhibition, significance) (Carcinogen: 7,12-DIMETHYLBENZ[A]ANTHRACENE, 57-97-6, 5 PPM (AS SELENIUM) IN DIET BEGINNING 2 WK PRIOR TO CARCINOGEN DOSE AND CONTINUING FOR 1 WK POST CARCINOGEN DOSE (STU, Strain/Sex: SPRAGUE-DAWLEY/FEMALE, Target Tissue: Type of Lesion: MAMMARY GLAND: ADENOCARCINOMA, Dose [Carcinogen]: 10 MG ONCE AT 55 D OF AGE): 22/25 (88%), 15/25 (60%), 32%, p<0.05
tumour outcome (control, treated, inhibition, significance) (Carcinogen: 7,12-DIMETHYLBENZ[A]ANTHRACENE, 57-97-6, 5 PPM (AS SELENIUM) IN DIET BEGINNING 2 WK PRIOR TO CARCINOGEN DOSE AND CONTINUING FOR DURATION OF STUDY (STUDY DURAT, Strain/Sex: SPRAGUE-DAWLEY/FEMALE, Target Tissue: Type of Lesion: MAMMARY GLAND: ADENOCARCINOMA, Dose [Carcinogen]: 10 MG ONCE AT 55 D OF AGE): 88%, 52%, 41%, p<0.05
tumour outcome (control, treated, inhibition, significance) (Carcinogen: 7,12-DIMETHYLBENZ[A]ANTHRACENE, 57-97-6, 10 PPM (AS SELENIUM) IN DIET BEGINNING 1 WK POST CARCINOGEN DOSE AND CONTINUING FOR 25 WK (STUDY DURATION: 25 WK), Strain/Sex: SPRAGUE-DAWLEY/FEMALE, Target Tissue: Type of Lesion: MAMMARY GLAND: ADENOCARCINOMA, Dose [Carcinogen]: 10 MG ONCE AT 55 D OF AGE): 22/25 (88%), 14/25 (56%), 36%, p<0.05
tumour outcome (control, treated, inhibition, significance) (Carcinogen: 7,12-DIMETHYLBENZ[A]ANTHRACENE, 57-97-6, 10 PPM (AS SELENIUM) IN DIET BEGINNING 2 WK PRIOR TO CARCINOGEN DOSE AND CONTINUING FOR 1 WK POST CARCINOGEN DOSE (ST, Strain/Sex: SPRAGUE-DAWLEY/FEMALE, Target Tissue: Type of Lesion: MAMMARY GLAND: ADENOCARCINOMA, Dose [Carcinogen]: 10 MG ONCE AT 55 D OF AGE): 22/25 (88%), 12/25 (48%), 45%, p<0.05
tumour outcome (control, treated, inhibition, significance) (Carcinogen: 7,12-DIMETHYLBENZ[A]ANTHRACENE, 57-97-6, 10 PPM (AS SELENIUM) IN DIET BEGINNING 2 WK PRIOR TO CARCINOGEN DOSE AND CONTINUING FOR DURATION OF STUDY (STUDY DURA, Strain/Sex: SPRAGUE-DAWLEY/FEMALE, Target Tissue: Type of Lesion: MAMMARY GLAND: ADENOCARCINOMA, Dose [Carcinogen]: 10 MG ONCE AT 55 D OF AGE): 88%, 40%, 55%, p<0.05
tumour outcome (control, treated, inhibition, significance) (Carcinogen: 7,12-DIMETHYLBENZ[A]ANTHRACENE, 57-97-6, 15 PPM (AS SELENIUM) IN DIET BEGINNING 1 WK POST CARCINOGEN DOSE AND CONTINUING FOR 25 WK (STUDY DURATION: 25 WK), Strain/Sex: SPRAGUE-DAWLEY/FEMALE, Target Tissue: Type of Lesion: MAMMARY GLAND: ADENOCARCINOMA, Dose [Carcinogen]: 10 MG ONCE AT 55 D OF AGE): 22/25 (88%), 12/25 (48%), 45%, p<0.05
tumour outcome (control, treated, inhibition, significance) (Carcinogen: 7,12-DIMETHYLBENZ[A]ANTHRACENE, 57-97-6, 15 PPM (AS SELENIUM) IN DIET BEGINNING 2 WK PRIOR TO CARCINOGEN DOSE AND CONTINUING FOR 1 WK POST CARCINOGEN DOSE (ST, Strain/Sex: SPRAGUE-DAWLEY/FEMALE, Target Tissue: Type of Lesion: MAMMARY GLAND: ADENOCARCINOMA, Dose [Carcinogen]: 10 MG ONCE AT 55 D OF AGE): 22/25 (88%), 6/25 (24%), 73%, p<0.05
tumour outcome (control, treated, inhibition, significance) (Carcinogen: 7,12-DIMETHYLBENZ[A]ANTHRACENE, 57-97-6, 80 PPM IN HIGH FAT DIET FOR 2 WK BEGINNING 1 WK PRIOR TO CARCINOGEN DOSE (STUDY DURATION: 17 WK), Strain/Sex: SPRAGUE-DAWLEY/FEMALE, Target Tissue: Type of Lesion: MAMMARY GLAND: TUMOR, Dose [Carcinogen]: 5 MG IN 0.2 ML OLIVE OIL ONCE): 22/25 (88%), 5/25 (20%), 77%, p<0.01
tumour outcome (control, treated, inhibition, significance) (Carcinogen: AZOXYMETHANE, 25843-45-2, 20 PPM IN HIGH-FAT DIET BEGINNING 2 WK PRIOR TO CARCINOGEN TREATMENT AND CONTINUING FOR 3 D POST CARCINOGEN TREATMENT, Strain/Sex: F344/MALE, Target Tissue: Type of Lesion: COLON: ADENOCARCINOMA, Dose [Carcinogen]: 15 MG/KG BW/WK FOR 2 WK): 80%, 63%, 21%, not significant
tumour outcome (control, treated, inhibition, significance) (Carcinogen: AZOXYMETHANE, 25843-45-2, 40 PPM IN HIGH-FAT DIET BEGINNING 2 WK PRIOR TO CARCINOGEN TREATMENT AND CONTINUING FOR 3 D POST CARCINOGEN TREATMENT, Strain/Sex: F344/MALE, Target Tissue: Type of Lesion: COLON: ADENOCARCINOMA, Dose [Carcinogen]: 15 MG/KG BW/WK FOR 2 WK): 80%, 50%, 38%, p<0.05
tumour outcome (control, treated, inhibition, significance) (Carcinogen: AZOXYMETHANE, 25843-45-2, 40 PPM IN HIGH-FAT DIET FOR DURATION OF STUDY BEGINNING 3 D POST CARCINOGEN TREATMENT (STUDY DURATION: 36 WK), Strain/Sex: F344/MALE, Target Tissue: Type of Lesion: COLON: ADENOCARCINOMA, Dose [Carcinogen]: 15 MG/KG BW/WK FOR 2 WK): 80%, 37%, 54%, p<0.05
